Columns and labels:
RPS25 mRNA = assay: RPS25 siRNA knockdown, northern analysis of RPS25 mRNA level; assay type: cell-based, human; details: Huh7.13 cells, transient siRNA transfection, 72 hours, RPS25 mRNA normalized to β-actin mRNA, relative to control
Experimental: (§1) The day before transfection, 5×10^4 HeLa cells were seeded into 24-well plates. Once the cells reached 90% confluency, transfection of dual luciferase reporters was done using Lipofectamine 2000 (Invitrogen) according to the manufacturer's recommendations using 0.4 μg DNA per well. Cells were harvested for luciferase analysis after 24 hours. Double stranded RPS25 siRNAs, 5′-GGACUUAUCAAACUGGUUUtt-3′ (SEQ ID NO:3) and 5′-AAACCAGUUUGAUAAGUCCtt-3′ (SEQ ID NO:4) (Ambion, siRNA ID #142220), were used to knock down RPS25 in Huh7 cells. The Dicector™ DS (IDT; Coralville, Iowa) scrambled negative control duplex was used as a negative control. siRNA complexes were prepared in opti-MEM (Invitrogen) with 5 μl siPORT NeoFX transfection agent to a final siRNA concentration of 0.375 μM according to the manufacturer's specifications. siRNA complexes were plated and overlaid with 2×10^5 Huh7.13 cells in antibiotic-free media. The transfection media was replaced with complete media after 24 hours.
Total RNA was harvested with TRIzol (Invitrogen) according to the manufacturer's protocol from shRNA lentiviral transduced cells. […]

HCV (JFH1, genotype 2a) = assay: HCV amplification in RPS25 knockdown Huh7.13 cells, quantitative western analysis for NS5A; assay type: cell-based, hepatitis C virus; details: Huh7.13 cells infected with HCV at low MOI, 72 hours after infection, versus non-targeting control siRNA
Experimental: as §1
The HCV infection was carried out by inoculating Huh7.13 cells with 1 ml of culture medium from the HCV producer cell line Huh7 JFH1 HCV (genotype 2a). […]
Cells were lysed in E1 lysis buffer with 0.1% SDS. […] Signals were detected using flororchrome-conjugated secondary antibody for quantitative western blotting using the Odyssey scanner and software (LI-COR; Lincoln, Nebr.).

siRNA that targets RPS25: Double stranded RPS25 siRNAs 5′-GGACUUAUCAAACUGGUUUtt-3′ (SEQ ID NO:3) and 5′-AAACCAGUUUGAUAAGUCCtt-3′ (SEQ ID NO:4), Ambion (chain 1 GGACUUAUCAAACUGGUUUTT; chain 2 AAACCAGUUUGAUAAGUCCTT; chemistry not given here)
RPS25 knockdown effectiveness (RPS25 mRNA level) (RPS25 mRNA): over 95% | HCV NS5A protein expression (HCV amplification) (HCV (JFH1, genotype 2a)): not detected

Reference: patent publication US20150105433A1, “TREATING VIRAL INFECTIONS HAVING VIRAL RNAs TRANSLATED BY A NON-IRES MEDIATED MECHANISM” (THE UAB RESEARCH FOUNDATION, priority 2012, published 2015)
